Measured values from the OligoGym collection.
Oligonucleotides are written 5' to 3', each unit as a sugar letter and its base; * is a phosphorothioate linkage, no mark a phosphodiester; rarer units and linkages stand in square brackets, end groups in braces. Plain capitals give the bases only. d = 2'-deoxy (DNA); r = 2'-OH (RNA)

Biological target: UBE2T
Assay: reporter assay of Huesken 2005
Details: siRNA
Further: test concentration or dose not given here.

Compared with “sense rArUrCrUrArCrCrArGrArGrGrCrUrGrGrUrGrAdTdT / antisense rUrCrArCrCrArGrCrCrUrCrUrGrGrUrArGrArUdTdA”, “sense rArUrUrCrCrUrGrArGrArGrGrUrArCrCrCrArUdTdT / antisense rArUrGrGrGrUrArCrCrUrCrUrCrArGrGrArArUdGdA” is higher in normalised inhibition (eCFP-eYFP dual reporter): 97% for the first, 114% for the second.

Going from “sense rArUrUrGrCrCrArCrCrArArArArGrGrUrGrCrUdTdT / antisense rArGrCrArCrCrUrUrUrUrGrGrUrGrGrCrArArUdTdT” to “sense rCrArGrArGrUrArCrArCrArArCrUrCrArArCrAdTdT / antisense rUrGrUrUrGrArGrUrUrGrUrGrUrArCrUrCrUrGdGdA”, the normalised inhibition (eCFP-eYFP dual reporter) rises from 43.8% to 83%.

Going from “sense rCrArGrGrCrArUrCrArCrArUrGrUrUrGrGrCrAdTdT / antisense rUrGrCrCrArArCrArUrGrUrGrArUrGrCrCrUrGdGdG” to “sense rCrArUrCrGrCrArArCrUrGrUrGrUrUrGrArCrCdTdT / antisense rGrGrUrCrArArCrArCrArGrUrUrGrCrGrArUrGdTdT”, the normalised inhibition (eCFP-eYFP dual reporter) falls from 90.8% to 84.8%.

Compared with “sense rCrCrArArArArGrGrUrGrCrUrUrGrGrArGrArCdTdT / antisense rGrUrCrUrCrCrArArGrCrArCrCrUrUrUrUrGrGdTdG”, “sense rCrCrArArArUrGrGrArUrGrArCrCrUrGrCrGrAdTdT / antisense rUrCrGrCrArGrGrUrCrArUrCrCrArUrUrUrGrGdTdC” is higher in normalised inhibition (eCFP-eYFP dual reporter): 84.9% for the first, 95.3% for the second.

Going from “sense rCrCrArArUrUrUrArUrCrArUrCrCrArArArCrAdTdT / antisense rUrGrUrUrUrGrGrArUrGrArUrArArArUrUrGrGdAdG” to “sense rCrCrCrUrCrArArCrArUrCrGrCrArArCrUrGrUdTdT / antisense rArCrArGrUrUrGrCrGrArUrGrUrUrGrArGrGrGdAdT”, the normalised inhibition (eCFP-eYFP dual reporter) rises from 101% to 106%.

First: sense rCrCrCrUrGrArUrGrArCrCrCrGrCrUrCrArUrGdTdT / antisense rCrArUrGrArGrCrGrGrGrUrCrArUrCrArGrGrGdTdT
Second: sense rCrCrUrGrArGrArGrGrUrArCrCrCrArUrUrUrGdTdT / antisense rCrArArArUrGrGrGrUrArCrCrUrCrUrCrArGrGdAdA
The normalised inhibition (eCFP-eYFP dual reporter) of the first is higher: 91.2% for the first, 78.5% for the second.

First: sense rCrCrUrGrArUrGrArCrCrCrGrCrUrCrArUrGrGdTdT / antisense rCrCrArUrGrArGrCrGrGrGrUrCrArUrCrArGrGdGdT
Second: sense rCrCrUrGrCrGrArGrCrUrCrArArArUrArUrUrAdTdT / antisense rUrArArUrArUrUrUrGrArGrCrUrCrGrCrArGrGdTdC
The normalised inhibition (eCFP-eYFP dual reporter) of the first is lower: 83.5% for the first, 102% for the second.

Going from “sense rCrGrArGrCrUrCrArArArUrArUrUrArGrGrUrGdTdT / antisense rCrArCrCrUrArArUrArUrUrUrGrArGrCrUrCrGdCdA” to “sense rCrGrArUrUrUrCrUrCrArCrUrCrCrArArUrUrUdTdT / antisense rArArArUrUrGrGrArGrUrGrArGrArArArUrCrGdGdA”, the normalised inhibition (eCFP-eYFP dual reporter) rises from 90% to 107%.

Compared with “sense rCrUrCrArArArUrUrGrCrCrArCrCrArArArArGdTdT / antisense rCrUrUrUrUrGrGrUrGrGrCrArArUrUrUrGrArGdAdA”, “sense rCrUrCrArGrArArUrUrUrArArArUrArUrArArUdTdT / antisense rArUrUrArUrArUrUrUrArArArUrUrCrUrGrArGdGdA” is higher in normalised inhibition (eCFP-eYFP dual reporter): 68.5% for the first, 85.9% for the second.

First: sense rCrUrCrCrArArUrUrUrArUrCrArUrCrCrArArAdTdT / antisense rUrUrUrGrGrArUrGrArUrArArArUrUrGrGrArGdTdG
Second: sense rCrUrGrCrUrCrArUrGrUrCrArGrArArCrCrCrAdTdT / antisense rUrGrGrGrUrUrCrUrGrArCrArUrGrArGrCrArGdCdT
The normalised inhibition (eCFP-eYFP dual reporter) of the first is higher: 107% for the first, 104% for the second.

Going from “sense rCrUrUrArUrGrArGrArArArGrGrUrGrUrUrUrUdTdT / antisense rArArArArCrArCrCrUrUrUrCrUrCrArUrArArGdGdT” to “sense rCrUrUrCrCrUrCrArArGrArArUrGrCrCrArGrAdTdT / antisense rUrCrUrGrGrCrArUrUrCrUrUrGrArGrGrArArGdGdC”, the normalised inhibition (eCFP-eYFP dual reporter) falls from 92.5% to 76%.

Going from “sense rGrArArGrArGrArUrGrCrUrUrGrArUrArArUrCdTdT / antisense rGrArUrUrArUrCrArArGrCrArUrCrUrCrUrUrCdCdT” to “sense rGrArArGrCrArUrGrCrArArGrArCrArGrArArAdTdT / antisense rUrUrUrCrUrGrUrCrUrUrGrCrArUrGrCrUrUrCdTdC”, the normalised inhibition (eCFP-eYFP dual reporter) rises from 85.9% to 97.1%.

Compared with “sense rGrArArGrGrCrCrArGrUrCrArGrCrUrArGrUrAdTdT / antisense rUrArCrUrArGrCrUrGrArCrUrGrGrCrCrUrUrCdCdT”, “sense rGrArCrCrUrGrCrGrArGrCrUrCrArArArUrArUdTdT / antisense rArUrArUrUrUrGrArGrCrUrCrGrCrArGrGrUrCdAdT” is higher in normalised inhibition (eCFP-eYFP dual reporter): 91.9% for the first, 101% for the second.

Compared with “sense rGrArUrGrArGrGrArArGrArGrArUrGrCrUrUrGdTdT / antisense rCrArArGrCrArUrCrUrCrUrUrCrCrUrCrArUrCdAdG”, “sense rGrArUrUrUrGrUrCrUrGrGrArUrGrUrUrCrUrCdTdT / antisense rGrArGrArArCrArUrCrCrArGrArCrArArArUrCdCdT” is lower in normalised inhibition (eCFP-eYFP dual reporter): 95.1% for the first, 75% for the second.

First: sense rGrCrArArCrUrGrUrGrUrUrGrArCrCrUrCrUrAdTdT / antisense rUrArGrArGrGrUrCrArArCrArCrArGrUrUrGrCdGdA
Second: sense rGrCrGrArGrCrUrCrArArArUrArUrUrArGrGrUdTdT / antisense rArCrCrUrArArUrArUrUrUrGrArGrCrUrCrGrCdAdG
The normalised inhibition (eCFP-eYFP dual reporter) of the first is higher: 114% for the first, 71.6% for the second.

Going from “sense rGrCrUrArGrUrArGrGrCrArUrArGrArArArArGdTdT / antisense rCrUrUrUrUrCrUrArUrGrCrCrUrArCrUrArGrCdTdG” to “sense rGrCrUrCrArArArUrArUrUrArGrGrUrGrGrArGdTdT / antisense rCrUrCrCrArCrCrUrArArUrArUrUrUrGrArGrCdTdC”, the normalised inhibition (eCFP-eYFP dual reporter) falls from 106% to 87.1%.

First: sense rGrCrUrGrArUrGrArGrGrArArGrArGrArUrGrCdTdT / antisense rGrCrArUrCrUrCrUrUrCrCrUrCrArUrCrArGrCdCdT
Second: sense rGrCrUrUrGrArUrArArUrCrUrArCrCrArGrArGdTdT / antisense rCrUrCrUrGrGrUrArGrArUrUrArUrCrArArGrCdAdT
The normalised inhibition (eCFP-eYFP dual reporter) of the first is lower: 73.8% for the first, 101% for the second.

Going from “sense rGrGrArArGrGrArUrUrUrGrUrCrUrGrGrArUrGdTdT / antisense rCrArUrCrCrArGrArCrArArArUrCrCrUrUrCrCdAdG” to “sense rGrGrCrArUrCrArCrArUrGrUrUrGrGrCrArArGdTdT / antisense rCrUrUrGrCrCrArArCrArUrGrUrGrArUrGrCrCdTdG”, the normalised inhibition (eCFP-eYFP dual reporter) falls from 96.1% to 87.3%.

“sense rGrGrUrGrCrUrUrGrGrArGrArCrCrArUrCrCrCdTdT / antisense rGrGrGrArUrGrGrUrCrUrCrCrArArGrCrArCrCdTdT” was tested, and the normalised inhibition (eCFP-eYFP dual reporter) was 80.4%.
